Patent publication US4690926A, “Boxazomycin A and B, new antibiotics containing benzoxazole nucleus” (Bristol-Myers Company, priority 1986, dated 1987)
Converted amounts (≈) assume the structure as drawn. Counter-ions that a name gives are not always drawn.

What was measured:
E. coli NIHJ = test: Effect of pH on antimicrobial activity (MIC, Table 8); assay type: cell-based; conditions: Escherichia coli
S. aureus A20239 = assay type: cell-based; conditions: Staphylococcus aureus, Nutrient agar (Eiken), kanamycin-resistant
Toxicity, i.m. = conditions: up to a dose of 400 mg/kg (i.m.)
[1] = system: Staphylococcus aureus Smith; test: In vivo efficacy in infected mice; parameters: species or system Staphylococcus aureus; mice; conditions: for ED50: Staphylococcus aureus, im, 100×LD50 challenge in 5% hog gastric mucin, i.m. just before challenge, read-out: PD50
[2] = system: Neisseria gonorrhoeae A15112
S. necrophorus A15202 = test: Effect of pH on antimicrobial activity (MIC, Table 8); assay type: cell-based; conditions: Fusobacterium necrophorum
C. perfringens A9635 [3] = test: microbe, parasite or virus in culture; assay type: cell-based; conditions: Clostridium perfringens
[4] = system: Haemophilus influenzae A9729
[5] = system: Streptococcus pyogenes S-23; conditions: S23
S. aureus BX-1633 = assay type: cell-based; conditions: Staphylococcus aureus, BX1633; Nutrient agar (Eiken); lactamase producer
P. acnes A21933 = test: Effect of pH on antimicrobial activity (MIC, Table 8); assay type: cell-based, Propionibacterium acnes; conditions: Cutibacterium acnes
M. phlei D88 = conditions: Mycolicibacterium phlei
[6] = system: Propionibacterium acnes A21933; conditions: Cutibacterium acnes
[7] = system: Pseudomonas aeruginosa D-113; conditions: D113
[8] = system: Klebsiella pneumoniae D-11; conditions: D11
[9] = system: Bacteroides fragilis A22693
M. smegmatis 607 D46 = assay type: cell-based, Mycobacterium smegmatis; conditions: Mycolicibacterium smegmatis, Nutrient agar (Eiken), kanamycin-resistant
[10] = system: Clostridium perfringens A9635; test: animal or person; assay type: in vivo, Clostridium perfringens; mice
Acidity = assay type: physicochemical
S. pneumoniae IID = conditions: Streptococcus pneumoniae
B. subtilis PCI 219 = test: Effect of pH on antimicrobial activity (MIC, Table 8); assay type: cell-based; conditions: Bacillus subtilis
K. pneumoniae D11 = test: as above; assay type: cell-based; conditions: Klebsiella pneumoniae
[11] = system: Peptostreptococcus anaerobius A21905
C. perfringens A9635 [12] = test: microbe, parasite or virus in culture; assay type: cell-based; conditions: Clostridium perfringens; remark: listed apart in the source
[13] = assay type: physicochemical
B. fragilis A20926 = test: Effect of pH on antimicrobial activity (MIC, Table 8); assay type: cell-based; conditions: Bacteroides fragilis
[14] = system: Bacillus subtilis PCI 219; conditions: PCI219
B. fragilis A22534 = assay type: cell-based; conditions: Bacteroides fragilis, GA agar (Nissui), lactamase producer
[15] = system: Mycobacterium smegmatis 607; conditions: Mycolicibacterium smegmatis
S. aureus A22421 = assay type: cell-based; conditions: Staphylococcus aureus, Nutrient agar (Eiken), methicillin-resistant
[16] = system: Clostridium difficile A21675; assay type: cell-based; conditions: Clostridioides difficile, GA agar (Nissui), clindamycin-resistant

## Cc1cc(O)c(C(N)=O)c2nc(-c3nc(CO)ncc3O)oc12 [Boxazomycin A]
E. coli NIHJ; pH 6
  MIC: > 100 µg/mL
E. coli NIHJ; pH 7
  MIC: > 100 µg/mL
S. aureus A20239
  MIC: 0.4 µg/mL (≈ 1.26 µM)
Toxicity, i.m.
  toxic symptoms: did not show any toxic symptoms up to a dose of 400 mg/kg (i.m.)
[1]
  ED50: 400 mg/kg
[1]; i.m.
  in vivo efficacy relative to in vitro activity: lower than that expected from its in vitro activity
  protective effect: protective effect in mice against both infections
[2]
  MIC: > 100 µg/mL
S. necrophorus A15202; A15202, pH 6
  MIC: 0.4 µg/mL (≈ 1.26 µM)
S. necrophorus A15202; A15202, pH 7
  MIC: 3.1 µg/mL (≈ 9.8 µM)
C. perfringens A9635 [3]
  MIC: 3.1 µg/mL (≈ 9.8 µM)
[4]
  MIC: > 100 µg/mL
[5]
  MIC: 3.1 µg/mL (≈ 9.8 µM)
S. aureus BX-1633
  MIC: 0.8 µg/mL (≈ 2.53 µM)
P. acnes A21933; A21933, pH 6
  MIC: 0.4 µg/mL (≈ 1.26 µM)
P. acnes A21933; A21933, pH 7
  MIC: 6.3 µg/mL (≈ 19.9 µM)
M. phlei D88
  MIC: 0.8 µg/mL (≈ 2.53 µM)
[6]
  MIC: 3.1 µg/mL (≈ 9.8 µM)
[7]
  MIC: > 100 µg/mL
[8]
  MIC: > 100 µg/mL
[9]
  MIC: 6.3 µg/mL (≈ 19.9 µM)
M. smegmatis 607 D46
  MIC: 1.6 µg/mL (≈ 5.06 µM)
[10]; Clostridium perfringens, A9635, in Mus musculus, im, read-out: PD50
  ED50: 220 mg/kg
[10]; mice, i.m.
  in vivo efficacy relative to in vitro activity: lower than that expected from its in vitro activity
  protective effect: protective effect in mice against both infections
Acidity
  acidity: weakly acidic
S. pneumoniae IID
  MIC: 3.1 µg/mL (≈ 9.8 µM)
B. subtilis PCI 219; PCI219, pH 6
  MIC: 0.8 µg/mL (≈ 2.53 µM)
B. subtilis PCI 219; PCI219, pH 7
  MIC: 6.3 µg/mL (≈ 19.9 µM)
K. pneumoniae D11; D11, pH 6
  MIC: > 100 µg/mL
K. pneumoniae D11; D11, pH 7
  MIC: > 100 µg/mL
[11]
  MIC: 3.1 µg/mL (≈ 9.8 µM)
C. perfringens A9635 [12]; A9635, pH 6
  MIC: 0.2 µg/mL (≈ 0.632 µM)
C. perfringens A9635 [12]; A9635, pH 7
  MIC: 3.1 µg/mL (≈ 9.8 µM)
[13]
  solubility in alkaline water and dimethylformamide: readily soluble
  solubility in ethyl acetate, chloroform, benzene and n-hexane: practically insoluble
  solubility in water, methanol, ethanol and acetone: slightly soluble
B. fragilis A20926; A20926, pH 6
  MIC: 0.05 µg/mL (≈ 0.158 µM)
B. fragilis A20926; A20926, pH 7
  MIC: 3.1 µg/mL (≈ 9.8 µM)
[14]
  MIC: 3.1 µg/mL (≈ 9.8 µM)
B. fragilis A22534
  MIC: 3.1 µg/mL (≈ 9.8 µM)
[15]
  MIC: 1.6 µg/mL (≈ 5.06 µM)
S. aureus A22421
  MIC: 0.8 µg/mL (≈ 2.53 µM)
[16]
  MIC: 3.1 µg/mL (≈ 9.8 µM)

## NC[C@H]1O[C@H](O[C@H]2[C@H](O)[C@@H](O[C@H]3O[C@H](CO)[C@@H](O)[C@H](N)[C@H]3O)[C@H](N)C[C@@H]2N)[C@H](O)[C@@H](O)[C@@H]1O [Kanamycin, kanamycin, reference compound]
S. aureus A20239
  MIC: > 100 µg/mL
[1]
  ED50: 1.4 mg/kg
[2]
  MIC: 0.4 µg/mL (≈ 0.826 µM)
C. perfringens A9635 [3]
  MIC: > 50 µg/mL
[4]
  MIC: 0.4 µg/mL (≈ 0.826 µM)
[5]
  MIC: 25 µg/mL (≈ 51.6 µM)
S. aureus BX-1633
  MIC: 0.8 µg/mL (≈ 1.65 µM)
M. phlei D88
  MIC: 1.6 µg/mL (≈ 3.3 µM)
[6]
  MIC: > 50 µg/mL
[7]
  MIC: 25 µg/mL (≈ 51.6 µM)
[8]
  MIC: 0.4 µg/mL (≈ 0.826 µM)
[9]
  MIC: 50 µg/mL (≈ 103 µM)
M. smegmatis 607 D46
  MIC: > 100 µg/mL
S. pneumoniae IID
  MIC: 25 µg/mL (≈ 51.6 µM)
[11]
  MIC: > 50 µg/mL
[14]
  MIC: 0.2 µg/mL (≈ 0.413 µM)
B. fragilis A22534
  MIC: 50 µg/mL (≈ 103 µM)
[15]
  MIC: 0.8 µg/mL (≈ 1.65 µM)
S. aureus A22421
  MIC: 0.8 µg/mL (≈ 1.65 µM)
[16]
  MIC: > 50 µg/mL

## Cc1ncc(O)c(-c2nc3c(C(N)=O)c(O)cc(C)c3o2)n1 [Boxazomycin B]
E. coli NIHJ; pH 6
  MIC: > 100 µg/mL
E. coli NIHJ; pH 7
  MIC: > 100 µg/mL
S. aureus A20239
  MIC: 0.8 µg/mL (≈ 2.66 µM)
[2]
  MIC: > 100 µg/mL
S. necrophorus A15202; A15202, pH 6
  MIC: 0.4 µg/mL (≈ 1.33 µM)
S. necrophorus A15202; A15202, pH 7
  MIC: 6.3 µg/mL (≈ 21 µM)
C. perfringens A9635 [3]
  MIC: 12.5 µg/mL (≈ 41.6 µM)
[4]
  MIC: > 100 µg/mL
[5]
  MIC: 12.5 µg/mL (≈ 41.6 µM)
S. aureus BX-1633
  MIC: 0.8 µg/mL (≈ 2.66 µM)
P. acnes A21933; A21933, pH 6
  MIC: 0.2 µg/mL (≈ 0.666 µM)
P. acnes A21933; A21933, pH 7
  MIC: 6.3 µg/mL (≈ 21 µM)
M. phlei D88
  MIC: 1.6 µg/mL (≈ 5.33 µM)
[6]
  MIC: 6.3 µg/mL (≈ 21 µM)
[7]
  MIC: > 100 µg/mL
[8]
  MIC: > 100 µg/mL
[9]
  MIC: 12.5 µg/mL (≈ 41.6 µM)
M. smegmatis 607 D46
  MIC: 3.1 µg/mL (≈ 10.3 µM)
Acidity
  acidity: weakly acidic
S. pneumoniae IID
  MIC: 25 µg/mL (≈ 83.3 µM)
B. subtilis PCI 219; PCI219, pH 6
  MIC: 0.2 µg/mL (≈ 0.666 µM)
B. subtilis PCI 219; PCI219, pH 7
  MIC: 1.6 µg/mL (≈ 5.33 µM)
K. pneumoniae D11; D11, pH 6
  MIC: > 100 µg/mL
K. pneumoniae D11; D11, pH 7
  MIC: > 100 µg/mL
[11]
  MIC: 6.3 µg/mL (≈ 21 µM)
C. perfringens A9635 [12]; A9635, pH 6
  MIC: 0.4 µg/mL (≈ 1.33 µM)
C. perfringens A9635 [12]; A9635, pH 7
  MIC: 6.3 µg/mL (≈ 21 µM)
[13]
  solubility in alkaline water and dimethylformamide: readily soluble
  solubility in ethyl acetate, chloroform, benzene and n-hexane: practically insoluble
  solubility in water, methanol, ethanol and acetone: slightly soluble
B. fragilis A20926; A20926, pH 6
  MIC: 0.1 µg/mL (≈ 0.333 µM)
B. fragilis A20926; A20926, pH 7
  MIC: 3.1 µg/mL (≈ 10.3 µM)
[14]
  MIC: 1.6 µg/mL (≈ 5.33 µM)
B. fragilis A22534
  MIC: 12.5 µg/mL (≈ 41.6 µM)
[15]
  MIC: 3.1 µg/mL (≈ 10.3 µM)
S. aureus A22421
  MIC: 0.8 µg/mL (≈ 2.66 µM)
[16]
  MIC: 6.3 µg/mL (≈ 21 µM)

## Cc1cc(O)c(C(N)=O)c2nc(-c3nc(CO)ncc3O)oc12 [Boxazomycin A di-sodium salt]
[13]
  solubility in water: soluble in water
